The record followed here is patent US10695319B2, “Glucose conjugates of triptolide, analogs and uses thereof” (The Johns Hopkins University, priority 2016, dated 2020).

For data set [1], the system named is luciferase-expressing prostate cancer line PC3/ML. Briefly: Metastatic prostate cancer model, bioluminescent imaging. The class given is in vivo, NOD/SCID/IL2rγ^null (NSG) mice. As to conditions: triptolide 0.2 mg/kg, G4 1 mg/kg. On the procedure: FIG. 3. Effects of triptolide and glucose-triptolide conjugate G4 in a metastatic mouse prostate cancer model. The injected prostate cancer cells expressed luciferase, which was detected by imaging of live animals.
(§1) The in vivo antitumor activity of the glucose-triptolide conjugate G4 was determined using an established metastatic prostate cancer model (Reference 1). In this model, the luciferase-expressing prostate cancer line PC3/ML was injected into NOD/SCID/IL2rγ^null (NSG) mice through the tail vein. The metastasis of the injected prostate cancer cells into liver, kidney, lung and bone can be monitored in live animals by bioluminescent imaging (BLI). It was shown that this is a reliable model with reproducible liver metastasis and all animals succumb by Week 7 after injection of cells (or Week 4 after initiation of treatments). […] Three weeks after cell injection, each compound was given once daily by IP at those doses for a total of 4 weeks. The surviving animals were continuously monitored upon termination of compound administration.

The nature of data set [2]: Preliminary experiments on tolerable treatment dose. As to conditions: mice. The class given is in vivo. The method, then: as §1

SMILES strings stand for the structures.

`CC(C)[C@]12O[C@H]1[C@@H]1O[C@]13[C@]1(O[C@H]1C[C@H]1C4=C(CC[C@@]13C)C(=O)OC4)[C@@H]2O` [triptolide]: the “tumor after termination of compound administration” value in data set [1] (after 4 weeks of once daily IP, till end of experiment) was “tumors immediately returned”. For the same compound, the “tumor cells at the end of Week 4 of treatment” value in data set [1] (once daily IP for 4 weeks, BLI) was “undetectable tumor cells”. In data set [2], this compound returned a tolerable treatment dose of 0.2 mg/kg.
